According to patent US20210299268A1, “ANTIBODY-ALK5 INHIBITOR CONJUGATES AND THEIR USES” (Synthis Therapeutics, Inc., priority 2018, published 2021):
Where two headings read alike, the source gives them in different places.

Columns and labels:
[1] = test system: primary mouse CD4+ T cells; experiment: MTS proliferation assay; format: cell-based
Method: Compounds A-D were tested to determine whether they could inhibit TGF-β signaling in primary mouse CD4^+ T cells.
Primary mouse CD4^+ T cells were isolated from the spleens of C57/B6 mice using the RoboSep™ cell isolation system (Stemcell Technologies). 0.5 μg/ml of hamster anti-mouse CD3e antibody (145-2C11; eBioscience) was coated onto a 96 well flat bottom plate overnight. 1×10^5 purified CD4^+ T cells were incubated with 1 μg/ml soluble hamster anti-mouse CD28 antibody (37.51, BD Biosciences), 1 nM TGF-β1 and 8-fold serial dilutions of Compounds A-D. After 72 hours, cell proliferation was measured using an MTS assay (Promega) in accordance with the manufacturer's instructions.

[2] = test system: TGF-β-induced luciferase activity in HEK293T cells; experiment: TGF-β-induced SMAD luciferase reporter assay in HEK293T cells; format: cell-based, human; conditions: HEK-293T
Method: Compounds A-D were tested to determine whether they could inhibit TGF-β-induced luciferase activity in HEK293T cells in vitro.
30,000 HEK293T cells were seeded in a 96 well white flat bottom plate overnight. The next day 100 ng of a SMAD luciferase reporter plasmid per well was transfected into the cells using lipofectamine for 24 hours. The next day cells were treated with Compounds A-D and 100 pM TGFβ for 24 hours. Luciferase activity was measured using the Dual-Glo® luciferase assay kit (Promega). The assay was run twice for Compounds A, B, and D, and three times for Compound C.

ALK5 = biological target: T1, ALK5 (Homo sapiens, UniProt P36897); experiment: recombinant kinase assays; format: biochemical
T1 sequence (P36897 34-503): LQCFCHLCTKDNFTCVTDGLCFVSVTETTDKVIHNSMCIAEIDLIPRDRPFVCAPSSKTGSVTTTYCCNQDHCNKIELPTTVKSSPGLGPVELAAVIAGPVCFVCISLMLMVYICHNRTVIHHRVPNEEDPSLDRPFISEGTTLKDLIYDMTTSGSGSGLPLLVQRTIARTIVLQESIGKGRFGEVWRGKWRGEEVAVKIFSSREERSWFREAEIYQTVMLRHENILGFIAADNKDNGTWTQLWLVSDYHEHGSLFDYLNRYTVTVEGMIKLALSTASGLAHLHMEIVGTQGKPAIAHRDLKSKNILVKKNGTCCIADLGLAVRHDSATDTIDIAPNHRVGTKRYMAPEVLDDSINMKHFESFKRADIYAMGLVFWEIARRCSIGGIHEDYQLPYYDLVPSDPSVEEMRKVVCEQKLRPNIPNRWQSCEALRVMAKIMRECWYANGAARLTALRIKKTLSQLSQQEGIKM
Text: Compound N was compared to Compound C in a number of in vitro assays.

[3] = Kinase = 1.5 nM, read-out: IC50 (nM) (Kinase = 1.5 nM)
[4] = Kinase = 25 nM, read-out: IC50 (nM) (Kinase = 25 nM)
[5] = Morrison equat/ 5 uM ATP, read-out: Ki (nM) (Morrison equat/ 5 uM ATP)
[6] = Steady state equation, read-out: Ki (nM) (Steady state equation)

Structure (SMILES) | effect on TGFβ-mediated inhibition of T cell proliferation ([1]; 1 nM TGF-β1, 72 hours) | Experiment 1 IC50 (nM) ([1]; 1 nM TGF-β1, 72 hours) | IC50 (ALK5; [3]) | IC50 (ALK5; [4]) | Ki (ALK5; [5]) | Ki (ALK5; [6]) | also measured
Cc1cccc(-c2nc(N)sc2-c2ccc3ncccc3n2)n1 [Compound A, 4-(6-methylpyridin-2-yl)-5-(1,5-naphthyridin-2-yl)thiazol-2-amine] | did not show consistent effects | Value not obtained |  |  |  |  | 
CNCCOc1ccc(-c2cc(-c3c[nH]nc3-c3ccccn3)ccn2)cc1 [Compound B, N-methyl-2-(4-(4-(3-(pyridin-2-yl)-1H-pyrazol-4-yl)pyridin-2-yl)phenoxy)ethan-1-amine] | reversed TGFβ-mediated inhibition of T cell proliferation |  |  |  |  |  | 
CNCCOc1ccc(-c2cc(-c3c[nH]nc3-c3cccc(C)n3)ccn2)cc1 [Compound C, N-methyl-2-(4-(4-(3-(6-methylpyridin-2-yl)-1H-pyrazol-4-yl)pyridin-2-yl)phenoxy)ethan-1-amine] | reversed TGFβ-mediated inhibition of T cell proliferation |  | 1.8 nM | 10 nM | 0.11 nM | 2.25 nM | IC50 ([1]; CD4+ T, summary value, mouse T cells, read-out: Mouse T cell proliferation assay): 26 nM; IC50 ([2]; summary value, human HEK cells, read-out: HEK Luciferase Assay): 11.7 nM; IC50 ([2]; Homo sapiens, Experiment 1, 100 pM TGFβ, 24 hours, read-out: Experiment 1 IC50): 10.1 nM; fold more potent than Compound N in the recombinant assays (ALK5): 10 fold
CCNC(=O)c1ccc2c(c1)NC(=O)/C2=C(\Nc1ccc(N(CCNC)S(C)(=O)=O)cc1)c1ccccc1 [Compound D, (Z)-N-ethyl-3-(((4-(N-(2-(methylamino)ethyl)methylsulfonamido)phenyl)amino)(phenyl)methylene)-2-oxoindoline-6-carboxamide] | not obtained | Value not obtained |  |  |  |  | Experiment 2 IC50 (nM) ([1]; Experiment 2, 1 nM TGF-β1, 72 hours): Value not obtained
CCc1cc(-c2ccc3ncnc(N)c3c2)n(-c2cccc(C)n2)n1 [Compound N] |  |  | 12 nM | 18 nM | 2.1 nM | 18.4 nM | 
